Experimental data: patent publication US5639751A, “N-acyl-2,3-benzodiazepine derivatives for treating acute and chronic neurodegenerative disorders” (priority 1990, dated 1997)
Read-outs that look alike come from different tables or passages of the source.

Tests used:
AMPA/kainate receptors = experiment: Inhibition of synaptic field potentials (population spikes) in rat hippocampal slices; assay type: cell-based; conditions: population spikes in CA1, after 30 min. perfusion
Protocol: Synaptic potentials in the CA1 area of hippocampus evoked by stimulation of the Schaffer collaterals are mediated by AMPA/kainate receptors. […] Lett. 92, 64 (1988)].
The inhibition of population spikes in CA1 was studied in rat hippocampal slices after 30 min. perfusion application of the test compounds.

[1] = AMPA induced spreading depression in isolated chicken retina; assay type: cell-based; conditions: AMPA (5 μM)
Protocol: (§1) Anti-kainate and -AMPA effects were investigated in the in vitro retinal spreading depression model [Brain Res. 607, 189 (1993)]. AMPA/kainate antagonists prolong the latency of the development of spreading depression evoked. by kainate (5 μM), or AMPA (5 μM). In some cases the effect on spreading depression evoked by 100 μM NMDA was also studied to clarify the selectivity.

[2] = Kainate induced spreading depression in isolated chicken retina; assay type: cell-based; conditions: kainate (5 μM)
Protocol: as §1

male CFLP mice [3] = experiment: Anticonvulsive effect in mice, electroshock test; assay type: in vivo; conditions: Mus musculus, po, read-out: ED50 p.o., ES (electroshock)
Protocol: (§2) The anticonvulsive effect of the compounds of the formula (I) was measured by using the electroshock test [J. Pharmacol. Exp. Ther. 106, 319 (1952)], furthermore by using various chemical agents such as pentetrazole [J. Pharmacol. Exp. Ther. 108, 168 (1953)], strychnine [J. Pharmacol. Exp. Ther. 129, 75 (1960)], bemegride, nicotine and 4-aminopyridine. The test compounds were orally administered in 3 doses, to 10 male CFLP mice per dose.

male CFLP mice [4] = experiment: Anticonvulsive effect in mice, pentetrazole; assay type: in vivo; conditions: Mus musculus, po, read-out: ED50 p.o., Pentetrazole
Protocol: as §2

CFLP mice = experiment: Inclined screen test in mice; assay type: in vivo; conditions: Mus musculus, ip, read-out: ED50 i.p., inclined screen test
Text: In Randall's inclined screen test [J. Pharmacol. Exp. Ther. 129, 163 (1960)] the compounds were applied in 3 i.p. doses to 10 CFLP mice per dose.

mice [5] = experiment: Rotarod test in mice; assay type: in vivo; conditions: Mus musculus, ip, read-out: ED50 i.p., rotarod test
Text: The rotarod test was used to measure muscular tone and motor co-ordination [J. Am. Pharm. Assoc. 46, 208 (1957)].

cats [6] = experiment: Effect on spinal (polysynaptic) flexor reflexes in chloralose anaesthetized cats; assay type: in vivo; conditions: Felis catus, iv
Text: Res. Comm. 20, S1, 141 (1988)].

Acute toxicity in mice = conditions: mouse, in vivo
Protocol: The cause of mortality was respiratory insufficiency developing within 1 to 2 hours after i.p. administration and within 10 to 20 hours after oral application.

mice [7] = experiment: Protection against methamphetamine-induced dopaminergic neurotoxicity, in mice; assay type: in vivo; conditions: METH 2×20 mg/kg i.p., Example 128 3×5 mg/kg i.p., MK-801 3×2.5 mg/kg i.p.
Protocol: High doses of methamphetamine (2×20 mg/kg i.p.) decrease the striatal level of dopamine, which can be prevented by glutamate antagonists, e.g. the NMDA-antagonist MK-801 [Science 243, 398 (1989)].

AMPA receptors = experiment: Inhibition of synaptic field potentials in rat neocortex slices; assay type: cell-based
Text: Similarly as in hippocampal CA1 area, glutamate is the main excitatory transmitter in the neocortex, and dominantly AMPA receptors are involved in mediation of synaptic responses evoked by stimulation of the white matter and recorded from the area adjacent to the site of stimulation [J. Neurophysiol. 64, 1282 (1990)]. The inhibitory effect on such field potentials was studied in rat neocortex slices, maintained in Vitro, according to Fletcher et al. [Br. J. Pharmacol. 95, 585 (1988)].

AMPA receptor = experiment: Inhibition of quisqualate induced DC potentials in rat neocortex slices; assay type: cell-based
Protocol: The AMPA antagonist effect was tested in rat neocortex slices by using a method similar to that of Harrison and Simmonds [Br. J. Pharmacol. 84, 381 (1985)].

NMDA [8] = experiment: NMDA induced responses (DC potentials) in rat neocortex slices; assay type: cell-based
male CFLP mice [9] = experiment: Anticonvulsive effect in mice, strychnine; assay type: in vivo; conditions: Mus musculus, po, read-out: ED50 p.o., Strychnine
Protocol: as §2

male CFLP mice [10] = experiment: Anticonvulsive effect in mice, bemegride; assay type: in vivo; conditions: Mus musculus, po, read-out: ED50 p.o., Bemegride
Protocol: as §2

male CFLP mice [11] = experiment: Anticonvulsive effect in mice, nicotine; assay type: in vivo; conditions: Mus musculus, po
Protocol: as §2

male CFLP mice [12] = experiment: Anticonvulsive effect in mice, 4-aminopyridine; assay type: in vivo; conditions: Mus musculus, po, read-out: ED50 p.o., 4-AP (4-aminopyridine)
Protocol: as §2

cats [13] = experiment: Effects on spinal root reflex potentials in spinalized and immobilized cats; assay type: in vivo; conditions: Felis catus, iv
Protocol: The effect of compound of Example 15(16) on the spinal root potentials in cats was tested in spinalized and immobilized animals [Neuropharmacology 21, 161 (1989)].

NMDA [14] = experiment: NMDA evoked spreading depression in isolated chicken retina; assay type: cell-based; conditions: spreading depression evoked by 100 μM NMDA
Protocol: as §1

[15] = test system: [^3 H]-AMPA specific binding sites in CNS membrane preparations; conditions: Neuroreport 5, 93 (1993); cited from earlier work
[16] = test system: [^3 H]-kainate specific binding sites in CNS membrane preparations; conditions: Neuroreport 5, 93 (1993); cited from earlier work
[17] = * <20% inhibition at the highest dose applied, read-out: ED50, DRP (dorsal root potential)
[18] = * <20% inhibition at the highest dose applied, read-out: ED50, DRR (dorsal root reflex)
[19] = read-out: ED50, MSR (monosynaptic ventral root reflex)
[20] = read-out: ED50, PSR (polysynaptic ventral root reflex)

Structure (SMILES)	IC50 (AMPA/kainate receptors)	IC50 [1]	IC50 [2]	ED50 (male CFLP mice [3])	ED50 (male CFLP mice [4])	ED50 (CFLP mice)	ED50 (mice [5])	ED50 (cats [6])	LD50 (Acute toxicity in mice; ip, read-out: LD50 i.p.)	LD50 (Acute toxicity in mice; po, read-out: LD50 p.o.)	ED50 (male CFLP mice [9])	ED50 (male CFLP mice [11])	also measured
CNC(=O)N1N=C(c2ccc(N)cc2)c2cc3c(cc2CC1C)OCO3 (single isomer, unassigned; (-)) [Example 123, (-)-1-(4-Aminophenyl)-3-methylcarbamoyl-4-methyl-7,8-methylenedioxy-3,4-dihydro-5H-2,3 benzodiazepine]	3.9 µM	1.7 µM	0.5 µM	8.4 mg/kg	13.8 mg/kg	8.8 mg/kg	1.9 mg/kg	0.05 mg/kg	~50 mg/kg	75 to 100 mg/kg			
CC(=O)N1N=C(c2ccc(N)cc2)c2cc3c(cc2CC1C)OCO3 (single isomer, unassigned; (-)) [Example 128, (-)-1-(4-Aminophenyl)-3-acetyl-4-methyl-7,8-methylenedioxy-3,4-dihydro-5H-2,3-benzodiazepine]	7.8 µM	1 µM	2.7 µM					0.13 mg/kg	73.5 mg/kg	~100 mg/kg			ED50 (male CFLP mice [3]; mice, p.o.): 5.3 mg/kg; ED50 (male CFLP mice [4]; mice, p.o.): 16.8 mg/kg; ED50 (mice [5]; mice, i.p.): 2.3 mg/kg; (DOPAC + HVA)/DA, % (mice [7]; % of saline group): 144%; DA, % (mice [7]; % of saline group): 48%; (DOPAC + HVA)/DA, mean ± SE (mice [7]; striatal dopamine turnover): 0.36 ± 0.10; DA, μg/g tissue, mean ± SE (mice [7]; striatal dopamine): 7.17 ± 1.89 μg/g tissue
N#Cc1cc2[nH]c(=O)c(=O)[nH]c2cc1[N+](=O)[O-] [CNQX, 1,2,3,4-tetrahydro-7-nitro-2,3-dioxo-quinoxalinecarbonitrile, reference compound]	1.4 µM												
CC(=O)N1N=C(c2ccc(N)cc2)c2cc3c(cc2CC1C)OCO3 (stereo not shown) [Example 15 (16), 1-(4-Aminophenyl)-3-acetyl-4-methyl-7,8-methylenedioxy-3,4-dihydro-5H-2,3-benzodiazepine]	24.8 µM	3.7 µM	5.1 µM					0.36 mg/kg	127 mg/kg	130 mg/kg	> 200 mg/kg	45 mg/kg	IC50 (AMPA receptors): 21.5 µM; Inhibition of induced field potentials in % of control (AMPA receptors; concentration 10 μM): 30%; Inhibition of induced field potentials in % of control (AMPA receptors; concentration 20 μM): 47%; Inhibition of induced field potentials in % of control (AMPA receptors; concentration 40 μM): 69%; Inhibition of induced field potentials in % of control (AMPA receptors; concentration 80 μM): 82%; Activity relative to the reference compound GYKI 52466 in inhibiting the response to quisqualate (AMPA receptor; 2-minute perfusion with 10 μM of quisqualate, corresponding concentrations): twice as active; Effect on the responses induced by NMDA (NMDA [8]): failed to affect; ED50 (male CFLP mice [3]; mice, p.o.): 12 mg/kg; ED50 (male CFLP mice [4]; mice, p.o.): 46.8 mg/kg; ED50 (male CFLP mice [10]; mice, p.o.): 16 mg/kg; ED50 (male CFLP mice [12]; mice, p.o.): 9 mg/kg; ED50 (CFLP mice; mice, i.p.): 23.5 mg/kg; ED50 (mice [5]; mice, i.p.): 3.7 mg/kg; ED50 (cats [13]; [17]): > 1.6 mg/kg; ED50 (cats [13]; [18]): > 1.6 mg/kg; ED50 (cats [13]; [19]): 0.69 mg/kg; ED50 (cats [13]; [20]): 0.77 mg/kg
CNC(=O)N1N=C(c2ccc(N)cc2)c2cc3c(cc2CC1C)OCO3 (stereo not shown) [Example 98, 1-(4-Aminophenyl)-3-methylcarbamoyl-4-methyl-7,8-methylenedioxy-3,4-dihydro-5H-2,3-benzodiazepine]	12.6 µM			17.1 mg/kg	21.3 mg/kg	18 mg/kg	8.6 mg/kg	0.14 mg/kg	93.1 mg/kg	96.6 mg/kg	29 mg/kg	19 mg/kg	ED50 (male CFLP mice [10]): 11 mg/kg; ED50 (male CFLP mice [12]): 13.5 mg/kg
CC1=NN=C(c2ccc(N)cc2)c2cc3c(cc2C1)OCO3 [GYKI 52466, 1-(4-aminophenyl)-4-methyl-7,8-methylenedioxy-5H-2,3-benzodiazepine, reference compound]	31.7 µM	6.3 µM	9.5 µM	38 mg/kg	115 mg/kg	47 mg/kg	24 mg/kg	0.9 mg/kg			87 mg/kg	70 mg/kg	IC50 (AMPA receptors): 30 µM; Inhibition of induced field potentials in % of control (AMPA receptors; concentration 10 μM): 22%; Inhibition of induced field potentials in % of control (AMPA receptors; concentration 20 μM): 39%; Inhibition of induced field potentials in % of control (AMPA receptors; concentration 40 μM): 62%; Inhibition of induced field potentials in % of control (AMPA receptors; concentration 80 μM): 73%; Inhibition of DC-potential changes induced by perfusion of quisqualate (AMPA receptor; concentration range of 10-50 μM): dose-dependently inhibited; Effect on the responses induced by NMDA (NMDA [8]): failed to affect; NMDA antagonist effect, times weaker than AMPA antagonist effect (NMDA [14]): ≥ 10 times; ED50 (male CFLP mice [10]): 73 mg/kg; ED50 (male CFLP mice [12]): 43 mg/kg; ED50 (cats [13]; [17]): > 4 mg/kg; ED50 (cats [13]; [18]): > 4 mg/kg; ED50 (cats [13]; [19]): 2.2 mg/kg; ED50 (cats [13]; [20]): 2.3 mg/kg; Displacement of [3H]-AMPA from specific binding sites [15]: displace neither; Displacement of [3H]-kainate from specific binding sites [16]: displace neither
NS(=O)(=O)c1cccc2c1c([N+](=O)[O-])cc1[nH]c(=O)c(=O)[nH]c12 [NBQX, 1,2,3,4-tetrahydro-6-nitro-2,3-dioxo-benzo(f)quinoxaline-7-sulfonamide, reference compound]								0.91 mg/kg					
